pIC50: −log10 of the molar value.
tested on: HCT116; experiment: In Vitro cytotoxicity measured by the cell colony formation assay; format: cell-based, human; settings: HCT116 colony formation; 72 h with drug, colonies counted after 7 days; ID50 = concentration producing 50% inhibition of colony formation; read-out: IN VITRO ID 50 HCT116
Description: Four hundred cells (HCT116) were plated in 60 mm Petri dishes containing 2.7 mL of medium (modified McCoy's 5a medium containing 10% fetal bovine serum and 100 units/mL penicillin and […] streptomycin). The cells were incubated in a CO2 incubator at 37 °C for 5 h for attachment to the bottom of Petri dishes. The compounds identified in Example 2 were made up fresh in medium at ten times the final concentration, and then 0.3 mL of this stock solution was added to the 2.7 mL of medium in the dish. The cells were then incubated with drugs for 72 h at 37 °C. At the end of incubation the drug-containing media were decanted, the dishes were rinsed with 4 mL of Hank's Balance Salt Solution (HBSS), 5 mL of fresh medium was added, and the dishes were returned to the incubator for colony formation. The cell colonies were counted using a colony counter after incubation for 7 days.

Compound | pIC50
CC=CC(=O)OC1C(=O)C2(C)C(O)CC3OCC3(OC(C)=O)C2C(OC(=O)c2ccccc2)C2(O)CC(OC(=O)C(O)C(NC(=O)OC(C)(C)C)c3ccoc3)C(C)=C1C2(C)C (stereo not drawn) [Compound 2380] | > 9.00

same assay, conditions: Homo sapiens, HCT-116; read-out: IN VITRO ID 50 HCT116

Compound | pIC50
CCCC(=O)O[C@H]1C(=O)[C@@]2(C)[C@H]([C@H](OC(=O)c3ccccc3)[C@]3(O)C[C@H](OC(=O)[C@H](O)[C@@H](NC(=O)OCC(C)C)c4ccoc4)C(C)=C1C3(C)C)[C@]1(OC(C)=O)CO[C@@H]1C[C@@H]2O [Compound 4704] | > 8.00
CC(=O)O[C@@]12CO[C@@H]1C[C@H](O)[C@@]1(C)C(=O)[C@H](OC(=O)c3cccs3)C3=C(C)[C@@H](OC(=O)[C@H](O)[C@@H](NC(=O)OC(C)(C)C)c4ccc([N+](=O)[O-])cc4)C[C@@](O)([C@@H](OC(=O)c4ccccc4)[C@H]21)C3(C)C [Compound 1911] | > 8.00
CCCC(=O)O[C@H]1C(=O)[C@@]2(C)[C@H]([C@H](OC(=O)c3ccccc3)[C@]3(O)C[C@H](OC(=O)[C@H](O)[C@@H](NC(=O)OCC(C)C)c4cccs4)C(C)=C1C3(C)C)[C@]1(OC(C)=O)CO[C@@H]1C[C@@H]2O [Compound 3265] | > 8.00
CCCC(=O)O[C@H]1C(=O)[C@@]2(C)[C@H]([C@H](OC(=O)c3ccccc3)[C@]3(O)C[C@H](OC(=O)[C@H](O)[C@@H](NC(=O)OCC(C)C)c4ccsc4)C(C)=C1C3(C)C)[C@]1(OC(C)=O)CO[C@@H]1C[C@@H]2O [Compound 4834] | > 8.00
CCCC(=O)O[C@H]1C(=O)[C@@]2(C)[C@H]([C@H](OC(=O)c3ccccc3)[C@]3(O)C[C@H](OC(=O)[C@H](O)[C@@H](NC(=O)c4ccccc4)c4cccs4)C(C)=C1C3(C)C)[C@]1(OC(C)=O)CO[C@@H]1C[C@@H]2O [Compound 3258] | > 9.00
CCC(=O)O[C@H]1C(=O)[C@@]2(C)[C@H]([C@H](OC(=O)c3ccccc3)[C@]3(O)C[C@H](OC(=O)[C@H](O)[C@@H](NC(=O)c4ccccc4)c4ccncc4)C(C)=C1C3(C)C)[C@]1(OC(C)=O)CO[C@@H]1C[C@@H]2O [Compound 0659] | > 9.00
CCC(=O)OC1C(=O)C2(C)C(O)CC3OCC3(OC(C)=O)C2C(OC(=O)c2ccccc2)C2(O)CC(OC(=O)C(O)C(NC(=O)OC(C)(C)CC)c3ccco3)C(C)=C1C2(C)C (stereo not drawn) [Compound 6522] | > 9.00
CC(=O)OC12COC1CC(O)C1(C)C(=O)C(OC(=O)C(C)C)C3=C(C)C(OC(=O)C(O)C(NC(=O)OC(C)(C)C)C(C)C)CC(O)(C(OC(=O)c4ccccc4)C21)C3(C)C (stereo not drawn) [Compound 2306] | > 8.00
CC(=O)O[C@@]12CO[C@@H]1C[C@H](O)[C@@]1(C)C(=O)[C@H](OC(=O)c3cccs3)C3=C(C)[C@@H](OC(=O)[C@H](O)[C@@H](NC(=O)OC(C)(C)C)c4cccnc4)C[C@@](O)([C@@H](OC(=O)c4ccccc4)[C@H]21)C3(C)C [Compound 1948] | > 8.00
CC(=O)O[C@@]12CO[C@@H]1C[C@H](O)[C@@]1(C)C(=O)[C@H](OC(=O)c3cccs3)C3=C(C)[C@@H](OC(=O)[C@H](O)[C@@H](NC(=O)OC(C)(C)C)c4ccccc4)C[C@@](O)([C@@H](OC(=O)c4ccccc4)[C@H]21)C3(C)C [Compound 1988] | > 8.00
CC(=O)O[C@@]12CO[C@@H]1C[C@H](O)[C@@]1(C)C(=O)[C@H](OC(=O)C=C(C)C)C3=C(C)[C@@H](OC(=O)[C@H](O)[C@@H](NC(=O)OC(C)(C)C)c4ccccc4)C[C@@](O)([C@@H](OC(=O)c4ccccc4)[C@H]21)C3(C)C [Compound 2520] | > 8.00
CC(=O)OC12COC1CC(O)C1(C)C(=O)C(OC(=O)C(C)C)C3=C(C)C(OC(=O)C(O)C(NC(=O)OC(C)(C)C)C4CCC4)CC(O)(C(OC(=O)c4ccccc4)C21)C3(C)C (stereo not drawn) [Compound 2319] | > 8.00
CCCC(=O)OC1C(=O)C2(C)C(O)CC3OCC3(OC(C)=O)C2C(OC(=O)c2ccccc2)C2(O)CC(OC(=O)C(O)C(C=C(C)C)NC(=O)OCC(C)C)C(C)=C1C2(C)C (stereo not drawn) [Compound 5144] | > 8.00
CCC(=O)O[C@H]1C(=O)[C@@]2(C)[C@H]([C@H](OC(=O)c3ccccc3)[C@]3(O)C[C@H](OC(=O)[C@H](O)[C@@H](NC(=O)OC(C)(C)C)c4ccncc4)C(C)=C1C3(C)C)[C@]1(OC(C)=O)CO[C@@H]1C[C@@H]2O [Compound 0521] | > 9.00
CCCC(=O)O[C@H]1C(=O)[C@@]2(C)[C@H]([C@H](OC(=O)c3ccccc3)[C@]3(O)C[C@H](OC(=O)[C@H](O)[C@@H](NC(=O)OC(C)(C)C)C4CCC4)C(C)=C1C3(C)C)[C@]1(OC(C)=O)CO[C@@H]1C[C@@H]2O [Compound 1044] | > 9.00
CC(=O)O[C@@]12CO[C@@H]1C[C@H](O)[C@@]1(C)C(=O)[C@H](OC(=O)C3CC3)C3=C(C)[C@@H](OC(=O)[C@H](O)[C@@H](NC(=O)OCC(C)C)c4ccco4)C[C@@](O)([C@@H](OC(=O)c4ccccc4)[C@H]21)C3(C)C [Compound 3102] | > 9.00

Compound | pIC50
CC(=O)O[C@@]12CO[C@@H]1C[C@H](O)[C@@]1(C)C(=O)[C@H](OC(=O)C3CC3)C3=C(C)[C@@H](OC(=O)[C@H](O)[C@@H](NC(=O)OC(C)(C)C)c4ccccc4)C[C@@](O)([C@@H](OC(=O)c4ccccc4)[C@H]21)C3(C)C [Compound 0882] | > 9.00
CC(=O)O[C@@]12CO[C@@H]1C[C@H](O)[C@@]1(C)C(=O)[C@H](OC(=O)C3CC3)C3=C(C)[C@@H](OC(=O)[C@H](O)[C@@H](NC(=O)c4ccccc4)C4CC4)C[C@@](O)([C@@H](OC(=O)c4ccccc4)[C@H]21)C3(C)C [Compound 0923] | > 9.00
CCCC(=O)O[C@H]1C(=O)[C@@]2(C)[C@H]([C@H](OC(=O)c3ccccc3)[C@]3(O)C[C@H](OC(=O)[C@H](O)[C@@H](NC(=O)OC(C)(C)C)c4ccncc4)C(C)=C1C3(C)C)[C@]1(OC(C)=O)CO[C@@H]1C[C@@H]2O [Compound 0978] | > 9.00
CC(=O)O[C@@]12CO[C@@H]1C[C@H](O)[C@@]1(C)C(=O)[C@H](OC(=O)c3ccco3)C3=C(C)[C@@H](OC(=O)[C@H](O)[C@@H](NC(=O)OC(C)(C)C)C(C)C)C[C@@](O)([C@@H](OC(=O)c4ccccc4)[C@H]21)C3(C)C [Compound 2181] | > 8.00
CC(=O)OC12COC1CC(O)C1(C)C(=O)C(OC(=O)C(C)C)C3=C(C)C(OC(=O)C(O)C(NC(=O)OC(C)(C)C)c4cccnc4)CC(O)(C(OC(=O)c4ccccc4)C21)C3(C)C (stereo not drawn) [Compound 2242] | > 8.00
CCCC(=O)O[C@H]1C(=O)[C@@]2(C)[C@H]([C@H](OC(=O)c3ccccc3)[C@]3(O)C[C@H](OC(=O)[C@H](O)[C@@H](NC(=O)OC(C)C)c4cccs4)C(C)=C1C3(C)C)[C@]1(OC(C)=O)CO[C@@H]1C[C@@H]2O [Compound 3909] | > 9.00
CCC(=O)O[C@H]1C(=O)[C@@]2(C)[C@H]([C@H](OC(=O)c3ccccc3)[C@]3(O)C[C@H](OC(=O)[C@H](O)[C@@H](NC(=O)c4ccccc4)c4cccnc4)C(C)=C1C3(C)C)[C@]1(OC(C)=O)CO[C@@H]1C[C@@H]2O [Compound 0647] | 7.92
CC(=O)O[C@@]12CO[C@@H]1C[C@H](O)[C@@]1(C)C(=O)[C@H](OC(=O)C3CC3)C3=C(C)[C@@H](OC(=O)[C@H](O)[C@@H](NC(=O)c4cccs4)c4ccco4)C[C@@](O)([C@@H](OC(=O)c4ccccc4)[C@H]21)C3(C)C [Compound 3663] | > 9.00
CC(=O)O[C@@]12CO[C@@H]1C[C@H](O)[C@@]1(C)C(=O)[C@H](OC(=O)c3ccco3)C3=C(C)[C@@H](OC(=O)[C@H](O)[C@@H](NC(=O)OC(C)(C)C)c4ccoc4)C[C@@](O)([C@@H](OC(=O)c4ccccc4)[C@H]21)C3(C)C [Compound 2159] | > 9.00
CC(=O)OC12COC1CC(O)C1(C)C(=O)C(OC(=O)C(C)C)C3=C(C)C(OC(=O)C(O)C(NC(=O)OC(C)(C)C)c4ccc([N+](=O)[O-])cc4)CC(O)(C(OC(=O)c4ccccc4)C21)C3(C)C (stereo not drawn) [Compound 2320] | > 9.00
CC(=O)O[C@@]12CO[C@@H]1C[C@H](O)[C@@]1(C)C(=O)[C@H](OC(=O)C3CC3)C3=C(C)[C@@H](OC(=O)[C@H](O)[C@@H](NC(=O)c4ccccc4)c4ccccc4)C[C@@](O)([C@@H](OC(=O)c4ccccc4)[C@H]21)C3(C)C [Compound 0937] | > 8.00
CCC(=O)O[C@H]1C(=O)[C@@]2(C)[C@H]([C@H](OC(=O)c3ccccc3)[C@]3(O)C[C@H](OC(=O)[C@H](O)[C@@H](NC(=O)OC(C)(C)C)c4ccsc4)C(C)=C1C3(C)C)[C@]1(OC(C)=O)CO[C@@H]1C[C@@H]2O [Compound 0562] | > 9.00
CC(=O)O[C@@]12CO[C@@H]1C[C@H](O)[C@@]1(C)C(=O)[C@H](OC(=O)C3CC3)C3=C(C)[C@@H](OC(=O)[C@H](O)[C@@H](NC(=O)c4ccccc4)c4ccc([N+](=O)[O-])cc4)C[C@@](O)([C@@H](OC(=O)c4ccccc4)[C@H]21)C3(C)C [Compound 2869] | > 8.00
CC(=O)OC12COC1CC(O)C1(C)C(=O)C(OC(=O)C(C)C)C3=C(C)C(OC(=O)C(O)C(NC(=O)OC(C)(C)C)c4ccco4)CC(O)(C(OC(=O)c4ccccc4)C21)C3(C)C (stereo not drawn) [Compound 2269] | > 9.00
CC(=O)O[C@@]12CO[C@@H]1C[C@H](O)[C@@]1(C)C(=O)[C@H](OC(=O)C3CC3)C3=C(C)[C@@H](OC(=O)[C@H](O)[C@@H](NC(=O)c4ccccc4)c4ccncc4)C[C@@](O)([C@@H](OC(=O)c4ccccc4)[C@H]21)C3(C)C [Compound 2855] | > 9.00
CCOC(=O)N[C@@H](c1cccs1)[C@@H](O)C(=O)O[C@H]1C[C@@]2(O)[C@@H](OC(=O)c3ccccc3)[C@@H]3[C@]4(OC(C)=O)CO[C@@H]4C[C@H](O)[C@@]3(C)C(=O)[C@H](OC(=O)C3CC3)C(=C1C)C2(C)C [Compound 4051] | > 9.00

Source: EP1285920A1, “C10 Ester sustituted taxanes as antitumor agents” (Florida State University Research Foundation, Inc., priority 2001, dated 2003)
